In ChEMBL document CHEMBL1201862, “PubChem BioAssay data set” (2004):
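Values below derive from 48-hour exposures of cells grown in 96-well plates, with endpoints linearly interpolated between the two concentrations bracketing the appropriate inhibition level. At the GI50, growth is halved.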 The source made the active and inactive calls. Rule as the data show it: active = GI50 up to about 1.1 µM and inactive = higher.

Tests used:
Experiment in all cases: NCI-60 cell line screen, 48 h
[1] = system: A549
[2] = system: RPMI-8226
[3] = system: RXF 393
[4] = system: SNB-75
[5] = system: SK-MEL-28
[6] = system: HCT-15
[7] = system: SW-620
[8] = system: EKVX
[9] = system: OVCAR-3
[10] = system: TK-10
[11] = system: K562
[12] = system: T47D
[13] = system: SR
[14] = system: MOLT-4
[15] = system: M14
[16] = system: KM12
[17] = system: CAKI-1
[18] = system: SF-295
[19] = system: SK-OV-3
[20] = system: SK-MEL-5
[21] = system: NCI-H23
[22] = system: 786-0
[23] = system: PC-3
[24] = system: SN12C
[25] = system: OVCAR-8
[26] = system: OVCAR-4
[27] = system: HL-60
[28] = system: MDA-MB-231
[29] = system: SF-268
[30] = system: HT-29
[31] = system: CCRF-CEM
[32] = system: HCC 2998
[33] = system: COLO 205
[34] = system: UACC-257
[35] = system: Malme-3M
[36] = system: NCI-H522
[37] = system: MDA-N
[38] = system: MCF7
[39] = system: UACC-62
[40] = system: IGROV-1
[41] = system: BT-549
[42] = system: MDA-MB-435
[43] = system: HOP-62
[44] = system: HOP-92
[45] = system: DU-145
[46] = system: SF-539
[47] = system: SK-MEL-2
[48] = system: NCI-H226
[49] = system: NCI/ADR-RES
[50] = system: ACHN
[51] = system: UO-31
[52] = system: HCT-116
[53] = system: U-251
[54] = system: SNB-19
[55] = system: A498
[56] = system: LOX IMVI
[57] = system: NCI-H460
[58] = system: OVCAR-5

Measured: GI50

COC(=O)c1ccc(CN2CCc3c([nH]c4ccccc34)C2CO)o1 (stereo not given)
> 10 µM: [6]
inactive: [1] > 10 µM | [2] > 10 µM | [3] > 10 µM | [4] > 10 µM | [5] > 10 µM | [7] > 10 µM | [8] > 10 µM | [9] > 10 µM | [10] > 10 µM | [11] > 10 µM | [12] > 10 µM | [13] > 10 µM | [14] > 10 µM | [15] > 10 µM | [16] > 10 µM | [17] > 10 µM | [18] > 10 µM | [19] > 10 µM | [20] > 10 µM | [21] > 10 µM | [22] > 10 µM | [23] > 10 µM | [24] > 10 µM | [25] > 10 µM | [26] > 10 µM | [27] > 10 µM | [28] > 10 µM | [29] > 10 µM | [30] > 10 µM | [31] > 10 µM | [32] > 10 µM | [33] > 10 µM | [34] > 10 µM | [35] > 10 µM | [36] > 10 µM | [37] > 10 µM | [38] > 10 µM | [39] > 10 µM | [40] > 10 µM | [41] > 10 µM | [42] > 10 µM | [43] > 10 µM | [44] > 10 µM | [45] > 10 µM

O=C1[C@H](O)[C@@H]2C(O)O[C@H]3[C@@H]2N1C[C@H]3[Si](c1ccccc1)(c1ccccc1)c1ccccc1 (stereo not given in full)
inactive: [1] > 100 µM | [46] > 100 µM | [47] > 100 µM | [48] > 100 µM | [49] > 100 µM | [2] > 100 µM | [3] 20.2 µM | [4] 5.94 µM | [5] > 100 µM | [7] > 100 µM | [8] > 100 µM | [9] > 100 µM | [10] > 100 µM | [11] > 100 µM | [12] 29.1 µM | [13] > 100 µM | [14] > 100 µM | [15] > 100 µM | [50] > 100 µM | [51] > 100 µM | [16] > 100 µM | [17] > 100 µM | [52] > 100 µM | [18] > 100 µM | [19] > 100 µM | [20] > 100 µM | [53] > 100 µM | [21] > 100 µM | [22] > 100 µM | [23] > 100 µM | [54] > 100 µM | [25] > 100 µM | [26] > 100 µM | [28] > 100 µM | [29] > 100 µM | [30] > 100 µM | [32] > 100 µM | [33] > 100 µM | [34] > 100 µM | [55] > 100 µM | [38] > 100 µM | [39] > 100 µM | [56] > 100 µM | [40] > 100 µM | [41] > 100 µM | [42] > 100 µM | [57] > 100 µM | [43] > 100 µM | [58] > 100 µM | [45] > 100 µM
> 100 µM: [6]

N#CC(c1cc(Cl)ncn1)c1nc2cc(C(F)(F)F)ccc2s1 (stereo not given)
3.48 µM: [6]
inactive: [1] 6.01 µM | [46] 4.63 µM | [48] 15.1 µM | [49] 3.08 µM | [2] 3.78 µM | [3] 4.33 µM | [4] 5.79 µM | [5] 13 µM | [7] 5.37 µM | [8] 14.5 µM | [9] 3.32 µM | [10] 6.15 µM | [11] 6.92 µM | [12] 4.29 µM | [14] 4.74 µM | [15] 4.09 µM | [50] 13.6 µM | [51] 4.97 µM | [16] 3.27 µM | [17] 8.95 µM | [52] 2.97 µM | [18] 7.33 µM | [19] 17.5 µM | [20] 9.57 µM | [53] 3.08 µM | [21] 2.58 µM | [22] 3.3 µM | [24] 13.7 µM | [54] 3.83 µM | [25] 3.83 µM | [26] 2.97 µM | [28] 4.31 µM | [29] 3.66 µM | [30] 3.39 µM | [33] 3.35 µM | [34] 4.24 µM | [35] 4.14 µM | [55] 5.85 µM | [36] 1.24 µM | [37] 3.42 µM | [56] 3.57 µM | [40] 5.87 µM | [41] 3.09 µM | [42] 4.31 µM | [57] 4.78 µM | [43] 13.8 µM | [58] 3.78 µM | [44] 2.14 µM | [45] 12.9 µM

O=C(c1ccco1)n1c2ccc(Br)cc2c2nc3ccccc3nc21
48.2 µM: [6]
inactive: [46] > 100 µM | [47] 34.1 µM | [48] 68.4 µM | [49] 35.6 µM | [2] 11.2 µM | [3] 52 µM | [4] 16.6 µM | [5] > 100 µM | [7] 42.6 µM | [8] 34.5 µM | [9] 47.5 µM | [10] 45.8 µM | [11] 38.4 µM | [12] > 100 µM | [13] > 100 µM | [14] 22 µM | [15] > 100 µM | [50] 27.4 µM | [51] 27 µM | [16] 26.8 µM | [17] 84.9 µM | [52] 46.7 µM | [18] 72.8 µM | [20] > 100 µM | [53] 40.8 µM | [21] 23.7 µM | [22] 18.7 µM | [23] 50.4 µM | [24] > 100 µM | [54] 23.2 µM | [25] 35.2 µM | [26] 48.1 µM | [27] > 100 µM | [29] 27 µM | [30] 81.5 µM | [31] 40.8 µM | [32] 61.1 µM | [33] > 100 µM | [34] > 100 µM | [35] 35 µM | [36] 12.1 µM | [37] > 100 µM | [38] 5.09 µM | [39] 31.6 µM | [56] 46.3 µM | [40] 19.4 µM | [41] 45.4 µM | [42] > 100 µM | [57] 28.6 µM | [43] 16.1 µM | [58] > 100 µM | [44] 30.5 µM | [45] 40.6 µM
